In US6573267B2, “Useful aroyl aminoacyl pyrrole compounds” (Ortho-McNeil Pharmaceutical, Inc., priority 2000, dated 2003):
Counter-ions that a name gives are not always drawn. Like-named read-outs stand apart in the source and are kept apart here.

Columns and labels:
[1] = test system: toxic extensor seizure (maximal electroshock test); assay: Mouse anticonvulsant model, maximal electroshock test (MES); type: in vivo; settings: for ED50: ip; for MES ED50 (Active @ 30): active at dose 30; for MES ED50 (Active @ 100): active at dose 100
Experimental: Procedure for Testing in Mouse Anticonvulsant Model
The compounds of Formula (I) and Formula (II) are useful as anticonvulsant agents. The anticonvulsant activity of the subject compounds was determined using a standard “maximal electroshock test” (MES). In this test, activity is indicated by a block of the toxic extensor seizure, as described by Swinyard, et al., in J. PharmacoL Exptl. Therap., 106, 319 (1952). A more recent description of current anticonvulsant drug screening is given in Swinyard, et al., in Epilepsia, 19, 409 (1978).
The anticonvulsant activity of compounds of this invention tested according to the Swinyard (1952) method are shown in Table 3, having values for the Mouse MES Model in ED50 per dose (in mg/kg, i.p.).

[2] = test system: mechanical allodynia (paw withdrawal threshold); assay: Neuropathic pain model (Chung Model), spinal nerve ligation, mechanical allodynia with von Frey hairs; type: in vivo, Sprague-Dawley rats; settings: for inhibition in vivo at 30 mg/kg: read-out: % MPE
Experimental: Procedure for Testing in a Neuropathic Pain Model
The compounds of the present invention are useful in the treatment of neuropathic pain. The use of the compounds in treating neuropathic pain was determined using an animal model. This model was developed and first described by S. H. Chung and J. M. Chung, An Experimental Model for Peripheral Neuropathy Produced by Segmental Spinal Nerve Ligation in the Rat, Pain, 1992, 50, 355-363 (referred to hereinafter as the “Chung Model”).
Male Sprague-Dawley rats, weighing approximately 200 g each were anesthetized with isoflurane. The spinal nerve at the level of L5 was exposed through an incision just left of the dorsal midline and tightly ligated with 6-0 silk. At various times after surgery, animals were tested for mechanical allodynia with von Frey hairs (monofilaments which are calibrated to bend under a certain amount of pressure, ranging from 0.41 to 15.1 g). In order to calculate a paw withdrawal threshold (PWT), tactile allodynia was measured by recording the pressure at which the affected paw was withdrawn from graded stimuli according to the procedure of S. R. Chaplan, J. W. Pogrel, T. L. Yaksh, Role of Voltage-Dependent Calcium Channel Subtypes in Experimental Tactile Allodynia, J. Pharmacol. Exp. Ther. 1994, 269,1117-1123. Normal rats can withstand at least 15 g of pressure without responding. Operated rats, however, can respond to as little as 0.25 g of pressure. The surgery was deemed successful if the animal responded with a PWT of less than 4 g of pressure applied to the affected paw.
The sham operation consisted of a similar surgery; the spinal nerve was visualized without being ligated. […] The results of the assay were expressed as percent of the maximum possible effect (% MPE), calculated as the PWT at the time of testing minus the baseline PWT divided by the maximum PWT (15 g) minus the baseline PWT times 100.
The compounds having Formula (I) and Formula (II) were tested for activity against neuropathic pain by being dissolved or suspended in either water or hydroxypropyl methylcellulose, respectively. Postoperative animals between 14 to 42 days were fasted overnight prior to dosing. Animals were orally dosed and dosage volumes were calculated on a 4 mL/kg basis. The screening dose employed was 30 mg/kg.

[3] = Chung Model rat, antiallodynic activity, oral screening dose 30 mg/kg

| Compound | melting point | inhibition in vivo at 30 mg/kg [2, 3] [%] | further results |
| --- | --- | --- | --- |
| CCN(CC)CC(=O)c1cc(C(=O)c2ccc3ccccc3c2)n(C)c1 (as salt: HCl) [Cpd 13, 1-[5-(2-Naphthalenoyl)-1-methyl-1H-pyrrol-3-yl]-2-(N,N-diethylamino)ethanone] | 195 to 196 °C | – | – |
| CN1CCN(CC(=O)c2cc(C(=O)c3ccc(Cl)cc3)n(C)c2)CC1 [Cpd 7, 1-[5-(4-Chlorobenzoyl)-1-methyl-1H-pyrrol-3-yl]-2-(4-methyl-1-piperazinyl)ethanone] | – | 21 | ED50 [1]: 16.6 mg/kg |
| CCN(CC)CC(=O)c1cc(C(=O)c2ccc3ccccc3c2)cn1C [Cpd 1, 1-[4-(2-Naphthalenoyl)-1-methyl-1H-pyrrol-2-yl]-2-(N,N-diethylamino)ethanone] | – | 80 | ED50 [1]: 11 mg/kg |
| CCN(CC)CC(=O)c1cc(C(=O)c2cccnc2)n(C)c1 (as salt: HCl) [Cpd 12, 1-[5-(3-Pyridinoyl)-1-methyl-1H-pyrrol-3-yl]-2-(N,N-diethylamino)ethanone] | 158 to 160 °C (dec.) | – | – |
| CC(N(C)C)n1cc(C(=O)c2ccc3ccccc3c2)cc1C(=O)CN1CCCCC1 (stereo not shown) (as salt: HCl) [Cpd 5, 1-[4-(2-Naphthalenoyl)-1-(N,N-dimethylaminoeth-2-yl)-1H-pyrrol-2-yl]-2-(1-piperidinyl)ethanone] | 239 to 242 °C | – | – |
| CCN(CC)CC(=O)c1cc(C(=O)c2cccc3ccccc23)cn1C [Cpd 3, 1-[4-(1-Naphthalenoyl)-1-methyl-1H-pyrrol-2-yl]-2-(N,N-diethylamino)ethanone] | – | – | MES ED50 (Active @ 30) ([1]; i.p.): Active @ 30; inhibition in vivo at 30 mg/kg ([2]; Rattus norvegicus, po): 87% |
| CCN(CC)CC(=O)c1cc(C(=O)c2cccnc2)n(C)c1 [Cpd 12, 1-[5-(3-Pyridinoyl)-1-methyl-1H-pyrrol-3-yl]-2-(N,N-diethylamino)ethanone] | – | 4 | MES ED50 (Active @ 100) ([1]; i.p.): Active @ 100 |
| CCN(CC)CC(=O)c1cc(C(=O)c2cccs2)cn1C (as salt: HCl) [Cpd 2, 1-[4-(2-Thienoyl)-1-methyl-1H-pyrrol-2-yl]-2-(N,N-diethylamino)ethanone] | 196 to 198 °C | – | – |
| Cn1cc(C(=O)c2ccc3ccccc3c2)cc1C(=O)CN1CCCCC1 (as salt: HCl) [Cpd 17, 1-[4-(2-Naphthalenoyl)-1-methyl-1H-pyrrol-2-yl]-2-(1-piperidinyl)ethanone] | 246 to 248 °C | – | – |
| CCN(CC)CC(=O)c1cc(C(=O)c2cccc3ccccc23)cn1C (as salt: HCl) [Cpd 3, 1-[4-(1-Naphthalenoyl)-1-methyl-1H-pyrrol-2-yl]-2-(N,N-diethylamino)ethanone] | 222 to 224 °C | – | – |
| CCN(CC)CC(=O)c1cc(C(=O)c2cccs2)n(C)c1 (as salt: salt) [Cpd 10, 1-[5-(2-Thienoyl)-1-methyl-1H-pyrrol-3-yl]-2-(N,N-diethylamino)ethanone] | 153 to 155 °C | – | – |
| CCN(C)CC(=O)c1cc(C(=O)c2ccc3ccccc3c2)n(C)c1 [Cpd 15, 1-[5-(2-Naphthalenoyl)-1-methyl-1H-pyrrol-3-yl]-2-(N,N-ethylmethylamine)ethanone] | – | – | MES ED50 (Active @ 30) ([1]; i.p.): Active @ 30; % MPE [2, 3]: 40 % MPE |
| CCN(CC)CC(=O)c1cc(C(=O)c2cccs2)cn1C [Cpd 2, 1-[4-(2-Thienoyl)-1-methyl-1H-pyrrol-2-yl]-2-(N,N-diethylamino)ethanone] | – | 14 | MES ED50 (Active @ 30) ([1]; i.p.): Active @ 30 |
| Cn1cc(C(=O)c2cccc3ccccc23)cc1C(=O)CN1CCCCC1 [Cpd 4, 1-[4-(1-Naphthalenoyl)-1-methyl-1H-pyrrol-2-yl]-2-(1-piperidinyl)ethanone] | – | – | MES ED50 (Active @ 30) ([1]; i.p.): Active @ 30; inhibition in vivo at 30 mg/kg ([2]; Rattus norvegicus, po): 12% |
| CCCOn1cc(C(=O)CN(CC)CC)cc1C(=O)c1ccc(Cl)cc1 (as salt: HCl) [Cpd 9, 1-[5-(4-Chlorobenzoyl)-1-ethylmethoxy-1H-pyrrol-3-yl]2-[N,N-diethylamino]ethanone] | 149 to 151 °C | – | – |
| CCC(N(C)C)n1cc(C(=O)CN2CCCCC2)cc1C(=O)c1ccc(Cl)cc1 (stereo not shown) (as salt: HCl) [Cpd 14, 1-[5-(4-Chlorobenzoyl)-1-(N,N-dimethylaminoprop-3-yl) -1H-pyrrol-3-yl]-2-(1-piperidinyl)ethanone] | 138 to 141 °C | – | – |
| CCCOn1cc(C(=O)CN(CC)CC)cc1C(=O)c1ccc(Cl)cc1 [Cpd 9, 1-[5-(4-Chlorobenzoyl)-1-ethylmethoxy-1H-pyrrol-3-yl]2-[N,N-diethylamino]ethanone] | – | 5 | MES ED50 (Active @ 100) ([1]; i.p.): Active @ 100 |
| CCN(CC)CC(=O)c1cc(-c2ccc(Cl)s2)n(C)c1 [Cpd 6, 1-[5-(5-Chlorothieno-2-yl)-1-methyl-1H-pyrrol-3-yl]-2-(N,N-diethylamino)ethanone] | – | – | MES ED50 (Active @ 30) ([1]; i.p.): Active @ 30; % MPE [2, 3]: 54 % MPE |
| CCSCn1cc(C(=O)CN(CC)CC)cc1C(=O)c1ccccc1Cl (as salt: HCl) [Cpd 16, 1-[5-(2-Chlorobenzoyl)-1-ethylthiomethyl-1H-pyrrol-3-yl]-2-(N,N-diethylamino)ethanone] | 157 to 158 °C | – | – |
| CCN(CC)CC(=O)c1cc(C(=O)c2ccc3ccccc3c2)cn1C (as salt: fumarate) [Cpd 1, 1-[4-(2-Naphthalenoyl)-1-methyl-1H-pyrrol-2-yl]-2-(N,N-diethylamino)ethanone] | 130 to 132 °C | – | – |
| Cn1cc(C(=O)CN2CCCCC2)cc1C(=O)c1cccs1 [Cpd 11, 1-[5-(2-Thienoyl)-1-methyl-1H-pyrrol-3-yl]-2-(1-piperidinyl)ethanone] | 178 to 179 °C | 34 | MES ED50 (Active @ 30) ([1]; i.p.): Active @ 30 |
| Cn1cc(C(=O)CCN2CCCCC2)cc1C(=O)c1cccc2ccccc12 [Cpd 8, 1-[5-(1-Naphthalenoyl)-1-methyl-1H-pyrrol-3-yl]-3-(1-piperidinyl)-1-propanone] | – | – | MES ED50 (Active @ 30) ([1]; i.p.): Active @ 30; inhibition in vivo at 30 mg/kg ([2]; Rattus norvegicus, po): 25% |
| CCN(CC)CC(=O)c1cc(C(=O)c2cccs2)n(C)c1 [Cpd 10, 1-[5-(2-Thienoyl)-1-methyl-1H-pyrrol-3-yl]-2-(N,N-diethylamino)ethanone] | – | 0 | MES ED50 (Active @ 100) ([1]; i.p.): Active @ 100 |
| CCN(CC)CC(=O)c1cc(C(=O)c2ccc3ccccc3c2)n(C)c1 [Cpd 13, 1-[5-(2-Naphthalenoyl)-1-methyl-1H-pyrrol-3-yl]-2-(N,N-diethylamino)ethanone] | – | 80 | MES ED50 (Active @ 300) ([1]; i.p., active at dose 300): Active @ 300 |
| Cn1cc(C(=O)c2cccc3ccccc23)cc1C(=O)CN1CCCCC1 (as salt: HCl) [Cpd 4, 1-[4-(1-Naphthalenoyl)-1-methyl-1H-pyrrol-2-yl]-2-(1-piperidinyl)ethanone] | 246 to 248 °C | – | – |
| Cn1cc(C(=O)CCN2CCCCC2)cc1C(=O)c1cccc2ccccc12 (as salt: HCl) [Cpd 8, 1-[5-(1-Naphthalenoyl)-1-methyl-1H-pyrrol-3-yl]-3-(1-piperidinyl)-1-propanone] | 141 to 143 °C | – | – |
